The test has as its system LNCaP cells. In words: LNCaP cell viability assay (MTS). The class given is cell-based. The conditions noted are these: Homo sapiens, LNCaP cell line. The essentials:
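LNCaP cells (5000/well) treated 24 h after plating with compound at 1–80 µM for 48 h. Relative cell number read by MTS; GI50 from four-parameter variable-slope log(inhibitor) fit with bottom constrained to zero.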

Compound `CN(C)CC(NS(=O)(=O)c1ccc(C(F)(F)F)cc1)c1ccc(Cl)c(Cl)c1` (stereo not drawn) [Compound 161, N-(1-(3,4-dichlorophenyl)-2-(dimethylamino)ethyl)-4-(trifluoromethyl)benzenesulfonamide] had a 50% growth inhibitory concentration (GI50) (LNCaP, 48 h) of 25.4 µM.
For `CN(C)CC(NS(=O)(=O)c1cccc(C(F)(F)F)c1)c1ccc(Cl)c(Cl)c1` (stereo not drawn) [Compound 162, N-(1-(3,4-dichlorophenyl)-2-(dimethylamino)ethyl)-3-(trifluoromethyl)benzenesulfonamide], the GI50 (LNCaP, 48 h) amounted to 52.7 µM. Compared with the last compound, the GI50 is about 2.1-fold higher.
The same measure, in the same setting: the result for `CN(C)CC(NS(=O)(=O)c1cccc(Cl)c1)c1ccc(Cl)c(Cl)c1` (stereo not drawn) [Compound 163, 3-chloro-N-(1-(3,4-dichlorophenyl)-2-(dimethylamino)ethyl)benzenesulfonamide] reads 46 µM.
The same measure, in the same setting: the result for `CN(C)CC(NS(=O)(=O)c1ccc(Cl)cc1)c1ccc(Cl)c(Cl)c1` (stereo not drawn) [Compound 164, 4-chloro-N-(1-(3,4-dichlorophenyl)-2-(dimethylamino)ethyl)benzenesulfonamide] reads 28.2 µM; that for `CN(C)CC(NS(=O)(=O)c1ccc(OC(F)(F)F)cc1)c1cccc(Cl)c1` (stereo not drawn) [Compound 166, N-(1-(3-chlorophenyl)-2-(dimethylamino)ethyl)-4-(trifluoromethoxy)benzenesulfonamide], 44.5 µM; that for `CN(C)CC(NS(=O)(=O)c1ccc(OC(F)(F)F)cc1)c1ccc(F)c(Cl)c1` (stereo not drawn) [Compound 167, N-(1-(3-chloro-4-fluorophenyl)-2-(dimethylamino)ethyl)-4-(trifluoromethoxy)benzenesulfonamide], 42.4 µM.
Still for that read-out and setting: the same measure for `CN(C)CC(NS(=O)(=O)c1ccc(OC(F)(F)F)cc1)c1ccc(Cl)c(F)c1` (stereo not drawn) [Compound 168, N-(1-(4-chloro-3-fluorophenyl)-2-(dimethylamino)ethyl)-4-(trifluoromethoxy)benzenesulfonamide]: 24.7 µM.
For the compound `O=S(=O)(NC(CN1CCOCC1)c1ccc(Cl)c(Cl)c1)c1ccc(OC(F)(F)F)cc1` (stereo not drawn) [Compound 169, N-(1-(3,4-dichlorophenyl)-2-morpholinoethyl)-4-(trifluoromethoxy)benzenesulfonamide], growth (LNCaP, 48 h) was halved (GI50) at 53.7 µM.
For the setting “LNCaP, 48 h”, `CN(C)CC(NS(=O)(=O)/C=C/c1ccccc1)c1ccc(Cl)c(Cl)c1` (stereo not drawn) [Compound 174, (E)-N-(1-(3,4-dichlorophenyl)-2-(dimethylamino)ethyl)-2-phenylethene-1-sulfonamide] returned a GI50 of 30.9 µM. This GI50 is about 1.7-fold lower than that of the compound before.
On the same count and under the same terms, the same measure for `CN(C)CC(NS(=O)(=O)c1ccc(OC(F)(F)F)c([N+](=O)[O-])c1)c1ccc(Cl)c(Cl)c1` (stereo not drawn) [Compound 175, N-(1-(3,4-dichlorophenyl)-2-(dimethylamino)ethyl)-3-nitro-4-(trifluoromethoxy)benzenesulfonamide]: 3.23 µM; for `CN(C)CC(NS(=O)(=O)c1ccc(OC(F)(F)F)c(N)c1)c1ccc(Cl)c(Cl)c1` (stereo not drawn) [Compound 176, 3-amino-N-(1-(3,4-dichlorophenyl)-2-(dimethylamino)ethyl)-4-(trifluoromethoxy)benzenesulfonamide]: 31.4 µM.
With `O=S(=O)(NC(CN1CCCC1)c1ccc(Cl)cc1)c1ccc(OC(F)(F)F)cc1` (stereo not drawn) [Compound 181, N-(1-(4-chlorophenyl)-2-(pyrrolidin-1-yl)ethyl)-4-(trifluoromethoxy)benzenesulfonamide], for the setting “48 hours”, the GI50 is 51.4 µM.
With `O=S(=O)(NC(CN1CCCC1)c1ccc(Cl)c(Cl)c1)c1ccc(OC(F)(F)F)cc1` (stereo not drawn) [Compound 182, N-(1-(3,4-dichlorophenyl)-2-(pyrrolidin-1-yl)ethyl)-4-(trifluoromethoxy)benzenesulfonamide], where the note is “LNCaP, 48 h”, the GI50 turned out to be 24.5 µM.
In turn, `O=S(=O)(NC(CN1CCCCC1)c1ccc(Cl)cc1)c1ccc(OC(F)(F)F)cc1` (stereo not drawn) [Compound 183, N-(1-(4-chlorophenyl)-2-(piperidin-1-yl)ethyl)-4-(trifluoromethoxy)benzenesulfonamide] registered a 50% growth inhibitory concentration (GI50) (48 hours) of 33.8 µM. This lies in the double-digit micromolar range.
`CN1CCN(CC(NS(=O)(=O)c2ccc(OC(F)(F)F)cc2)c2ccc(Cl)cc2)CC1` (stereo not drawn) [Compound 184, N-(1-(4-chlorophenyl)-2-(4-methylpiperazin-1-yl)ethyl)-4-(trifluoromethoxy)benzenesulfonamide] gave a concentration for 50% growth inhibition (GI50) (LNCaP, 48 h) of 23.4 µM.
